Experimental data as given in patent US20250262209A1, “TREATMENT OF GASTROINTESTINAL DISEASES” (Aclipse Two, Inc., priority 2022, published 2025).

Test system: DSS-induced IBD model in female Balb/c mice
Assay: DSS-induced IBD model: body weight, DAI score, colon length and weight
Assay type: in vivo
Conditions: for DAI score: lobeglitazone groups (0.36, 1.20, 3.61 mg/kg PO QD)
Protocol: The purpose of this study was to test the efficacy of compound lobeglitazone in the DSS-induced IBD model in female Balb/c mice following oral administration. The study was conducted at an AAALAC accredited facility, and all animal study procedures were approved by the Institutional Animal Care and Use Committee (IACUC).
Precise amount of lobeglitazone sulfate (lot: EW34258-13-P1; purity: 97.6%) was weighted out into a clean tube, 0.5% CMC was added and vortexed fully, then sonicated 2-3 minutes to get an even suspension. The concentration of the solution was 0.361 mg/ml, 0.120 mg/mL, and 0.036 mg/mL. The dosing solution was freshly made daily until the end of the study. The compound was orally (PO), 10 mL/kg daily dosed for 10 days.
Totally 125.82 mg cyclosporin A (CSA, purity 98%) was weighed out into a clean tube, 2.055 mL castor oil was added firstly, then 39.046 mL […] (with 0.1% tween80) was added, vortexed fully, then sonicated 10 min to get a clear solution. The concentration of the solution was 3 mg/mL. The compound was PO, 10 mL/kg daily dosed for 10 days.
5% DSS preparation: […] DSS powder was weighted out into a clean bottle, 1 L Milli Q water was added subsequently, the solution was stirred until it was clear. Then 5% DSS was transferred to water bottle of the animal. 5% DSS was freshly made daily until the end of the study.
A total of 50 (7 weeks old) female Balb/c were purchased from Beijing Vital River Laboratory Animal Technology Co., Ltd. Animals were acclimatized for 1 week prior to the experiment. All the in vivo experimental procedures were approved by the institutional animal care and use committee (IACUC). All euthanasia was performed using carbon dioxide inhalation and all efforts were made to minimize animal suffering.
At the beginning of the study, randomization was performed based on body weight. All animals were randomly assigned to one of six groups (Table 1). The study schedule is described in FIG. 1.
DAI score was calculated by the sum of weight loss score, stool consistency score, and occult-gross bleeding score. Body weight loss was calculated by comparison with the body weight on day 1. Feces samples were collected from each individual animal, and stool consistency and occult-gross bleeding were evaluated according to Table 2. Stool Consistency was evaluated by the appearance of the feces. Occult-gross bleeding was evaluated using Fecal Occult Blood test strips. Occult bleeding score of 1 will be assigned if light or dark purple color developed within 20 seconds and longer than 15 seconds. Occult bleeding score of 2 was assigned if light or dark purple color developed within 15 seconds. Occult-gross bleeding score of 3 would be assigned if blood was visible in the feces.
Animals were euthanized by CO2 at the end of study. Colon length and colon weight (cecum is not included) were recorded, and macroscopic changes were scored based on Table 2. The colon was cleaned using saline, and all feces were removed before weight measurement. The middle part of colon was collected in cassette and fixed in 10% neutral buffered formalin (NBF) for H&E and PAS staining. For left colon, mucosal from colon surface was removed and then snap frozen in liquid nitrogen and store at −80° C. for QT-PCR analysis of TNF-α, IL-10, CCL2, and IL-1β. QT-PCR primers were purchased from Sangon Biotech Co., Ltd.
In vivo animal data were presented as mean±SEM. Statistical analysis was performed by one-way ANOVA followed by Dunnett's multiple comparison. […] The difference was considered significance when p<0.05.

[1] = lobeglitazone groups (0.36, 1.20, 3.61 mg/kg PO QD 10 days), vs control group

## COc1ccc(Oc2cc(N(C)CCOc3ccc(CC4SC(=O)NC4=O)cc3)ncn2)cc1 (centres unmarked) [lobeglitazone, 5-(4-(2-((6-(4-Methoxyphenoxy)pyrimidin-4-yl)(methyl)amino)ethoxy)benzyl)thiazolidine-2,4-dione]
0.36 mg/kg PO QD, vs control group
  body weight changes: no significant body weight changes
1.20 mg/kg PO QD, vs control group
  body weight changes: no significant body weight changes
3.61 mg/kg PO QD, day 2, vs control (no drug) group
  body weight changes: significantly reduced
[1]
  colon length: did not significantly increase
  colon length/weight ratio: did not significantly decrease
  colon weight: did not significantly change
Vs control group
  DAI score: did not significantly reduce
Vs control group, listed as Lobeglitazone
  DAI score: did not significantly decrease
